Values of other authors as cited in patent publication US20190175566A1, “ANTI-TUMOR COCKTAIL COMPRISING AN ANTI-TUMOR AGENT SELECTIVE FOR TUMOR ACIDITY, AN ANTIOXIDANT, AND A P-GLYCOPROTEIN INHIBITOR” (ARION TECNOLOGIA BRASIL- GESTAO DE ATIVOS S/A, priority 2016, published 2019).
Like-named read-outs stand apart in the source and are kept apart here.

What was measured:
[1] = in mice, intravenous route

COc1cc2c(cc1OC)CN(CCc1ccc(NC(=O)c3cc(OC)c(OC)cc3NC(=O)c3cnc4ccccc4c3)cc1)CC2 [Tariquidar, tariquidar]
toxicity (LD50) [1]: 300 mg/kg

COC1=C(OC)C(=O)C(C/C=C(\C)CC/C=C(\C)CC/C=C(\C)CC/C=C(\C)CC/C=C(\C)CC/C=C(\C)CC/C=C(\C)CC/C=C(\C)CC/C=C(\C)CCC=C(C)C)=C(C)C1=O [Co-Q10, Coenzyme Q10]
toxicity (LD50) (orally): ~20000 mg/kg

O=C(O)c1c2ccccc2nc2ccccc12 [9-acridine carboxylic acid]
toxicity (LD50) (route not given): 240 mg/kg | toxicity (LD50) (via intraperitoneal application (subcutaneously)): 240 mg/kg
